In patent US20210205292A1, “INHIBITORS OF CREB-CBP INTERACTION FOR TREATMENT OF LEUKEMIA” (The Board of Trustees of the Leland Stanford Junior …, priority 2016, published 2021):

Legend:
[1] = system: CREB target genes; experiment: RT-PCR of CREB target genes in GFP+ bone marrow cells of engrafted NSG mice; type: in vivo, mouse; settings: 2.3 mg/kg, three once-daily treatments after ten-day engraftment
Description: To directly evaluate the effects of Compound A on CREB transcriptional activity in vivo, six NSG mice were injected with 2×10^6 HL-60 expressing GFP. After a ten-day engraftment period, the mice received three once-daily treatments of either 2.3 mg/kg Compound A or DMSO. The mice were then sacrificed and GFP+ bone marrow cells were sorted and analyzed for transcriptional changes in validated CREB target genes. This experiment recapitulated in vitro findings (FIG. 4, panel E).

[2] = system: human AML patient sample cells (#186); experiment: Primary AML patient sample (#186) xenograft in NSG mice; type: in vivo; settings: 2.3 mg/kg IV once daily
Description: For AML xenograft mouse experiments, HL-60 cells (2×10^6) expressing firefly luciferase and GFP, or cryopreserved human AML patient cells (5×10^6), were injected through the tail vein into NOD.Cg-prkdc^scid Il2rg^tm1WjlSzJ (NSG) mice. Mice were then Compound A or 10% DMSO, injected intravenously by tail vein daily, until death or an endpoint was reached (moribundity) in accordance with the animal care institutional guidelines. All mouse experiments were subject to institutional approval by Stanford University Institutional Animal Care and Use Committee. Leukemia progression in mice at the indicated time points was monitored using an in vivo IVIS 100 bioluminescenceoptical imaging system (Xenogen Corporation). D-Luciferin (Promega) dissolved in sterile phosphate-buffered saline was injected intraperitoneally at a dose of […], 15 minutes before measuring the luminescent signal. General anesthesia was induced with […] and continued during the procedure using a nose cone. […]
To examine the efficacy of CREB inhibition in an in vivo model of AML, 4-6 week old NOD.Cg-Prkdc^scid Il2rg^tm1WjlSzJ (NSG) mice were tail-vein injected with HL-60 AML cells (2×10^6) expressing Firefly luciferase and GFP. […] The efficacy of Compound A was also assessed in a mouse xenograft model using primary AML cell sample (patient sample #186), using similar methods.

[3] = system: HL-60 cells; experiment: Flow cytometry of apoptosis (c-PARP+, aqua amine+) in HL-60 cells; type: cell-based, human; settings: Homo sapiens, 72 hours, 2 mM, read-out: cells apoptotic or non-viable
Description: AML cell lines were purchased from ATCC and maintained with IMDM (Gibco) supplemented with 10% FBS (Fisher Scientific) and 1% PSG (Gibco). Cells were plated at a density of 2-4×10^5 cells/ml, and treated with various doses of Compound A in 0.1% DMSO or 0.1% DMSO alone. Cell counts and viability were determined using the Vi-CELL XR Cell Viability Analyzer (Beckman Coulter). HL-60 and KG-1 cells overexpressing CREB or CBP were generated using lentiviral gene delivery with subsequent puromycin selection and FACs sorting for GFP. CREB knockdown was achieved by infecting cells with a lentivirus expressing the shRNA sequence 5′-[…]-3′ (SEQ ID NO:). For chemotherapy combination experiments, combination index values were calculated using median effects analysis on Calcusyn software. Human patient bone marrow samples were cultured in DMEM plus 20% FBS and 1×PSG, supplemented with recombinant GM-CSF (20 ng/ml), G-CSF (20 ng/ml), SCF (50 ng/ml), IL-3 (20 ng/ml), and IL-6 (10 ng/ml). Cells were plated at a concentration of 1×10^5 cells/ml in a 12-well plate. Vehicle (0.1% DMSO) or Compound A (2 μM) was added for up to 72 hours. All samples contained >85% AML blasts and were not sorted prior to performing experiments. […] Single cell suspensions of bone marrow culture were subsequently analyzed on a D×P10 flow cytometer (Cytek). […]

**Q.** `N#Cc1ccc(NC(=O)c2cc3ccccc3cc2O)cc1` [Compound A, N-(4-cyanophenyl)-3-hydroxy-2-naphthamide] was tested. Which “expression of CREB target genes in vivo (RT-PCR)” value [1] did it give?
**A.** significantly reduced expression of all genes shown

**Q.** And the toxicity ([2]; 80 days)?
**A.** None of the mice treated for 80 days experienced any toxicity

**Q.** What about the “survival (Kaplan-Meier)” value ([2]; versus DMSO-treated mice) of the same compound?
**A.** significant survival advantage

**Q.** What about the cytotoxicity at 2000 µM [3] of the same compound?
**A.** > 95%
